The results in this text go back to patent EP4810483A1, “6- AND 5-HETEROARYL DERIVATIVES AND USE THEREOF” (CMS Research & Development Pte. Ltd., priority 2023, dated 2025).

Where two headings read alike, the source gives them in different places.

The test system of data set [1] is maximal electroshock-induced epilepsy model. Nature of the data set: Maximal electroshock-induced epilepsy model, behavioral pharmacodynamics. The note with it: dose 5 mg/kg, oral, one hour before electrical stimulation; male CD-1 mice. In kind it is in vivo. The source says: Assay Example 2: Evaluation of the behavioral pharmacodynamics of the test compounds in a maximal electroshock-induced epilepsy model
This study used behavioral tests in male CD-1 mice to investigate the effects of test compounds on acute epileptic seizures behavior induced by maximal electroshock.
Male CD-1 mice (25 to 35g) were used as the experimental animals and fed with standard feed (Beijing Vital River Laboratory Animal Technology Co., Ltd.).
After arriving at the animal facility, the experimental animals needed to acclimatize for at least one week. The mice were observed daily for vital signs, and randomly divided into groups according to their body weights one day before the drug administration. One hour before the electrical stimulation, different dosages of the test compound were orally administered to each group. On the day of the assay, the male CD-1 mice in each group were anesthetized locally at the cornea with 2% lidocaine. Then, silver bipolar electrodes were used to electrically stimulate the cornea of the mice with 18 mA, 60 Hz, a pulse width of 0.6 ms, and a stimulation time of 1 s to induce seizures. Subsequently, the latency of seizures and the duration of limb rigidity in mice after the electrical stimulation were observed, and the protection rate from seizures for each group was statistically analyzed.

In data set [2] the target is T1, hKCNQ2/3 (Homo sapiens, UniProt O43525+O43526).
T1 construct: expressed in transfected cells; host or cells: CHO
Nature of the data set: cell-based. The source says: Test Method 1: hKCNQ2/3 Thallium Flux Assay
Test Objective: To test the in vitro concentration-response relationship of compounds using FLIPR thallium flux assay in CHO cell lines stably expressing hKCNQ2/3.
According to the split ratio, the cells were transferred to another T-75 flask containing complete cell growth medium. Note: To maintain logarithmic growth, the cells should be kept in a subconfluent monolayer state. Based on the cell doubling time, the cells were passaged every 2-3 days.
• (1) Day 1 - Cell preparation: Cells were digested as described above, and cell density and viability were determined using a Cell Countess. The volume of the single-cell suspension was adjusted with complete cell growth medium. Then, hKCNQ2/3_CHO cells were seeded onto PDL-precoated 384-well plates at a density of approximately 20,000 cells/well (30 µL/well). The plates were then incubated overnight in a 37°C, 5% CO2 humidified air incubator. • (2) Day 2 - Compound preparation: Test compounds were diluted with dimethyl sulfoxide (DMSO) to stock concentrations and stored in a -20°C freezer. A compound addition program was set up on the ECHO liquid handler, and compounds were added to the plates using the ECHO liquid handler. Retigabine (RTG) was used as a positive control at a highest concentration of 100 µM with 3-fold serial dilutions for a total of 9 doses. Buffer containing 5 mM K^+ and 1 mM Tl^+ was added to the plates. Notes: 1) K2SO4 and Tl2SO4 were prepared in 1× chloride-free buffer. Depending on the voltage-gated potassium channel involved, the concentrations of Tl^+ and K^+ should be adjusted. Tl^+ concentration is approximately 0.5-5 mM, and K^+ concentration is approximately 5-30 mM. 2) Each 1 mM solution of K2SO4 and Tl2SO4 contains 2 mM K^+ and Tl^+; the final concentration should be calculated based on the ion concentration. 3) TlCl readily precipitates and a chloride-free buffer is required. • (3) Day 2 -Assay testing: Once the cells reached the desired confluence, the cell assay plates were removed from the incubator. Assay buffer and diluted Tl^+ dye (Molecular Devices # R8222) were prepared. The medium was discarded using a Bravo liquid handler, and 25 µL of Tl^+ dye was added to each well. After 1 hour of incubation, the cell assay plates, composite plates and FLIPR tips were placed in the FLIPR^TETRA (Molecular Devices, USA) for FLIPR detection. After setting up the tips, baseline readings were taken for 60 seconds, then 12.5 µL was added from the composite plate (3×) to the cell assay plate, and data were recorded for at least 5 minutes. • (4) Data processing: Maximum signals were generated by the FLIPR software. […] Data quality control: S/B > 2.00, Z factor > 0.50.
• (1) Day 1 - Cell preparation: Cells were digested as described above, and cell density and viability were determined using a Cell Countess. The volume of the single-cell suspension was adjusted with complete cell growth medium. Then, hKCNQ2/3_CHO cells were seeded onto PDL-precoated 384-well plates at a density of approximately 20,000 cells/well (30 µL/well). The plates were then incubated overnight in a 37°C, 5% CO2 humidified air incubator. • (2) Day 2 - Compound preparation: Test compounds were diluted with dimethyl sulfoxide (DMSO) to stock concentrations and stored in a -20°C freezer. A compound addition program was set up on the ECHO liquid handler, and compounds were added to the plates using the ECHO liquid handler. Retigabine (RTG) was used as a positive control at a highest concentration of 100 µM with 3-fold serial dilutions for a total of 9 doses. Buffer containing 5 mM K^+ and 1 mM Tl^+ was added to the plates. Notes: 1) K2SO4 and Tl2SO4 were prepared in 1× chloride-free buffer. Depending on the voltage-gated potassium channel involved, the concentrations of Tl^+ and K^+ should be adjusted. Tl^+ concentration is approximately 0.5 mM -5 mM, and K^+ concentration is approximately 5 mM -30 mM.

Data set [3] can be described thus: Pharmacokinetic evaluation in mice (IV and PO). The data set is classed as in vivo. Conditions: mouse, plasma, CD-1 mice; for half-life: IV, read-out: Half-life T1/2 (IV) (converted); for AUC(0-t): PO, read-out: Area under the concentration-time curve AUC0-last PO; for bioavailability: read-out: Bioavailability F; for clearance: read-out: Clearance CL; for Cmax: read-out: Peak plasma concentration Cmax; for Vd: read-out: Volume of distribution Vdss. Here is the method: Test Method 2: Pharmacokinetic Evaluation in Mice
Assay method: Test compounds were mixed with 5% DMSO / 60% polyethylene glycol (PEG400) / 35% water, vortexed and sonicated to obtain a clear 0.2 mg/mL solution, which was then filtered through a microporous membrane before use. Male CD-1 mice weighing 25-35 g were selected. The candidate compound solution was administered intravenously at a dose of 1 mg/kg. The candidate compound solution was orally administered at a dose of 5 mg/kg after fasting. Blood samples (25 µL each) were collected at 0.083, 0.25, 0.5, 1, 2, 4, 8, 12 and 24 hours after administration, and placed into commercial anticoagulant tubes pre-containing EDTA-K2. The tubes were centrifuged for 10 minutes to separate plasma, which was then stored at -60°C. The content of the target compound in plasma samples was determined by LC/MS/MS method, and pharmacokinetic parameters were calculated using Phoenix WinNonlin software (Pharsight, USA).
Tlast: time of the last detection point. AUC0-last: (Area Under the Concentration-Time Curve) refers to the area enclosed by the plasma drug concentration curve and the time axis. F (Bioavailability) is a measure of the rate and extent to which a drug is absorbed into the systemic circulation, serving as a critical indicator for evaluating the degree of drug absorption. […]

T1 sequence (O43526 whole entry): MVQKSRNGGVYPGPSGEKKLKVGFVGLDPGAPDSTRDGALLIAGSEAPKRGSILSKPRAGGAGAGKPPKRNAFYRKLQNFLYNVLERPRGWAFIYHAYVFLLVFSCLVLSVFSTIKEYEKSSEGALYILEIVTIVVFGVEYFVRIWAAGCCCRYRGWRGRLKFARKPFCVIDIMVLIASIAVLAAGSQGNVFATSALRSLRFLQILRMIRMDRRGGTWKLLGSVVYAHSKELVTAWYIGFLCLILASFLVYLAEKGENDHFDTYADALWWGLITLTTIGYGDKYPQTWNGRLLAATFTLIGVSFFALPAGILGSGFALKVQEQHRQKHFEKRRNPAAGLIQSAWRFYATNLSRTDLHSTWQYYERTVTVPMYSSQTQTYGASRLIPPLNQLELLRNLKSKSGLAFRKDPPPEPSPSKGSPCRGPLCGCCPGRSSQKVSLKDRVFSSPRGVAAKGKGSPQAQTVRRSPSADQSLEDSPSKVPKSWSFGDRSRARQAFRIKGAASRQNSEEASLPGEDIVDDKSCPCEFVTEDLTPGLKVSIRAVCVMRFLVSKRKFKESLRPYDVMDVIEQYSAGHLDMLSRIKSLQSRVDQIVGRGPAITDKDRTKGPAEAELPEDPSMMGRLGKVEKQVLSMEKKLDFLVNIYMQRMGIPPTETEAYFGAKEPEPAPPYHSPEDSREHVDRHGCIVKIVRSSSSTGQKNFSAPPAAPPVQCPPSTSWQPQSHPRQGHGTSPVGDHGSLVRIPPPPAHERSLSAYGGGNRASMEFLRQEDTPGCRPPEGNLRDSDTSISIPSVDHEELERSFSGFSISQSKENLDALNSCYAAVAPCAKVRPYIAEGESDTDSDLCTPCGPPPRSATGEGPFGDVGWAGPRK
T1 sequence (O43525 whole entry): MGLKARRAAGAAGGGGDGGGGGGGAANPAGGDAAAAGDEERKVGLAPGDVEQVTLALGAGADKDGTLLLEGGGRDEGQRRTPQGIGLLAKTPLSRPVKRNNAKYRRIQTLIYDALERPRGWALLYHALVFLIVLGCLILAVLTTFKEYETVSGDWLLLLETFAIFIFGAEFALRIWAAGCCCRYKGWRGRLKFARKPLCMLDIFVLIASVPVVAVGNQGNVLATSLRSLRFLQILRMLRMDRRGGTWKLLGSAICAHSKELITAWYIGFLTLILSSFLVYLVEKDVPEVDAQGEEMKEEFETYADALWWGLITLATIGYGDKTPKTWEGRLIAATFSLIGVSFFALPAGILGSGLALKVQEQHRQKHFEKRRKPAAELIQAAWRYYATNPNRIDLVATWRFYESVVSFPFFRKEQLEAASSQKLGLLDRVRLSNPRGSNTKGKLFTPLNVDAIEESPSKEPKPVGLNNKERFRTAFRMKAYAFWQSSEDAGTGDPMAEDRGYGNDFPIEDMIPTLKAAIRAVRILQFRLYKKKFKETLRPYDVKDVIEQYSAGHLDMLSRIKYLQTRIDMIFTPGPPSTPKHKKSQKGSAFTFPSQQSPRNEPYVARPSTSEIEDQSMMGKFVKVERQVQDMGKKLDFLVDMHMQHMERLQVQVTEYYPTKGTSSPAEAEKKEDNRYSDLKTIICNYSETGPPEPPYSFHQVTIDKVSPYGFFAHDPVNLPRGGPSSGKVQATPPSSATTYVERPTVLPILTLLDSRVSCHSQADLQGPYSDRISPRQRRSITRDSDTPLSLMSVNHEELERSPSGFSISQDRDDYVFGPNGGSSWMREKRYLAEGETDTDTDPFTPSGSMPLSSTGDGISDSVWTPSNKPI

For `Cc1c(NC(=O)CC(C)(C)C)n(C)c2cc(Nc3ccc(F)cc3)ccc12` [Compound 1], the “Seizure incidence (%)” value in data set [1] is 16.7%. In addition, in data set [2], the EC50 stood at 960 nM. In data set [3] (dose IV:0.5, PO:2 mg/kg), the half-life was 1.83 h, the AUC(0-t) is 2.04 µM·h, the bioavailability was 79.6% and the clearance came out at 34.8 mL/min/kg. In data set [3] (dose IV:0.5, PO:2 mg/kg), the Cmax was 322 nM and the Vd came out at 5.16 L/kg. In data set [3] (dose IV:1, PO:5 mg/kg), the half-life is 1.63 h, the AUC(0-t) came out at 4.57 µM·h, the bioavailability worked out at 83.9% and the clearance is 41.8 mL/min/kg. In addition, in data set [3] (dose IV:1, PO:5 mg/kg), the Cmax turned out to be 596 nM and the Vd worked out at 5.06 L/kg.
On to `Cc1nc(Nc2ccc3c(C)c(NC(=O)CC(C)(C)C)n(C)c3c2)ccc1F` [Compound 41], for which, in data set [1], the “Seizure incidence (%)” value worked out at 0%. In data set [2], this compound yielded an EC50 of 290 nM. Further, in data set [3] (dose IV:1, PO:5 mg/kg), the half-life is 0.7 h, the AUC(0-t) stood at 21.4 µM·h, the bioavailability amounted to 78.2% and the clearance amounted to 8.9 mL/min/kg. Further, in data set [3] (dose IV:1, PO:5 mg/kg), the Cmax stood at 4580 nM and the Vd stood at 0.6 L/kg.
In the case of `Cc1c(NC(=O)CC(C)(C)C)n(C)c2cc(Nc3ccc(C(F)(F)F)cc3)ccc12` [Compound 5], the “Seizure incidence (%)” value in data set [1] was determined as 16.7%. This compound registered an EC50 in data set [2] of 520 nM. For the same compound, in data set [3] (dose IV:0.5, PO:2 mg/kg), the half-life was 5.9 h, the bioavailability is 64%, the clearance was found to be 9.1 mL/min/kg and the Vd was 3.97 L/kg.
